Consider 68 sequences from the supplement of paper PMC11208160.

The series is described as follows: recombinant UMI read abundance after kanamycin selection (control-corrected) (log10(CPM+1)); higher = more efficient recombination; extreme values may be limits of the assay; sequences stand for … in AGTGCAGAGAAAATCGGCCAGTTTTCTCTGCCTGCAGTCCGCATGCCGTGGGACCCCTTGGGTTCTAACCTGTTGCCTAGATTTATGCAGCGGACTGCCTTTCTCCCAAAGTGATAAACCGG…AGGTTGGTTTCACT; site = the 11-nt donor. The essentials: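 After plating on IPTG (0.07 mM) plus kanamycin, or unselected, in two replicates, recombinant UMIs were PCR-amplified across the donor–target junction and sequenced. The cells were Escherichia coli co-electroporated with a UMI-tagged donor and donor-binding-loop pair library and a target plasmid with a fixed target and T7-inducible IS621 bridge recombinase. Values are log10(CPM+1), with CPM averaged over replicates and scaled by control-derived factors.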
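Note: IS621 bridge recombinase in Escherichia coli cells against a fixed T5 target plasmid.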

As for “GTTACTGCATGGACCGGTTTTCCCGGTAATCCGTATTTGCC (site GGTACTGCTGG)”, the “recombinant UMI read abundance (log10)” value is 0.914. For the sequence “GTTACTGCATGGACCGGTTTTCCCGGTAATCCGTATTTGCC (site GTTACTGCTGG)”, the “recombinant UMI read abundance (log10)” value turned out to be 1.83. As for “GTTAGCTCATGGACCGGTTTTCCCGGTAATCCGTATTTGTG (site GTTAGCTCTCA)”, the figure is 0.415; as for “GTTAGTACATGGACCGGTTTTCCCGGTAATCCGTATTTGGC (site GTTAGAACTGC)”, 0.

As for “GTTAGTACATGGACCGGTTTTCCCGGTAATCCGTATTTGGC (site GTTAGCACTGC)”, the “recombinant UMI read abundance (log10)” value was found to be 0.

Regarding “GTTAGTACATGGACCGGTTTTCCCGGTAATCCGTATTTGGC (site GTTAGGACTGC)”, the “recombinant UMI read abundance (log10)” value was 0.

With “GTTAGTACATGGACCGGTTTTCCCGGTAATCCGTATTTGGC (site GTTAGTACTGC)”, the “recombinant UMI read abundance (log10)” value worked out at 0.861. On to “GTTATACCATGGACCGGTTTTCCCGGTAATCCGTATTTGCT (site GTTATACCTAG)”, for which the “recombinant UMI read abundance (log10)” value turned out to be 0. As to “GTTATAGCATGGACCGGTTTTCCCGGTAATCCGTATTTGTC (site GTTATAGCTGA)”, the “recombinant UMI read abundance (log10)” value was found to be 2.53. For “GTTCCAACATGGACCGGTTTTCCCGGTAATCCGTATTTGTA (site GATCCAACTTA)”, the “recombinant UMI read abundance (log10)” value worked out at 0.0199. As for “GTTCCAACATGGACCGGTTTTCCCGGTAATCCGTATTTGTA (site GCTCCAACTTA)”, the “recombinant UMI read abundance (log10)” value was 0.287. In the case of “GTTCCAACATGGACCGGTTTTCCCGGTAATCCGTATTTGTA (site GGTCCAACTTA)” it was 0.0991; in that of “GTTCCAACATGGACCGGTTTTCCCGGTAATCCGTATTTGTA (site GTTCCAACTTA)”, 0.437; in that of “GTTCCTACATGGACCGGTTTTCCCGGTAATCCGTATTTGCT (site GTTCCTACTAG)”, 0.774.

As to “GTTCGAACATGGACCGGTTTTCCCGGTAATCCGTATTTGGC (site GTTAGAACTGC)”, the “recombinant UMI read abundance (log10)” value was determined as 0.

Take “GTTCGAACATGGACCGGTTTTCCCGGTAATCCGTATTTGGC (site GTTCGAACTGC)”: the “recombinant UMI read abundance (log10)” value stood at 0.869. With “GTTCGAACATGGACCGGTTTTCCCGGTAATCCGTATTTGGC (site GTTGGAACTGC)”, the “recombinant UMI read abundance (log10)” value amounted to 0. As to “GTTCGAACATGGACCGGTTTTCCCGGTAATCCGTATTTGGC (site GTTTGAACTGC)”, the “recombinant UMI read abundance (log10)” value was 0. For “GTTCGACCATGGACCGGTTTTCCCGGTAATCCGTATTTGTG (site GTTCGACCTCA)”, the “recombinant UMI read abundance (log10)” value stood at 0.0309. Turning to “GTTCGAGCATGGACCGGTTTTCCCGGTAATCCGTATTTGCA (site ATTCGAGCTTG)”, the “recombinant UMI read abundance (log10)” value turned out to be 1.31. For the sequence “GTTCGAGCATGGACCGGTTTTCCCGGTAATCCGTATTTGCA (site CTTCGAGCTTG)”, the “recombinant UMI read abundance (log10)” value was 0.898. Consider “GTTCGAGCATGGACCGGTTTTCCCGGTAATCCGTATTTGCA (site GATCGAGCTTG)”, for which the “recombinant UMI read abundance (log10)” value was found to be 0.258.

On to “GTTCGAGCATGGACCGGTTTTCCCGGTAATCCGTATTTGCA (site GCTCGAGCTTG)”, for which the “recombinant UMI read abundance (log10)” value worked out at 1.25. Regarding “GTTCGAGCATGGACCGGTTTTCCCGGTAATCCGTATTTGCA (site GGTCGAGCTTG)”, the “recombinant UMI read abundance (log10)” value came to 0.00484. As to “GTTCGAGCATGGACCGGTTTTCCCGGTAATCCGTATTTGCA (site GTACGAGCTTG)”, the “recombinant UMI read abundance (log10)” value was 1.97.

On to “GTTCGAGCATGGACCGGTTTTCCCGGTAATCCGTATTTGCA (site GTCCGAGCTTG)”, for which the “recombinant UMI read abundance (log10)” value was determined as 1.29. In the case of “GTTCGAGCATGGACCGGTTTTCCCGGTAATCCGTATTTGCA (site GTGCGAGCTTG)” it was 0.215.

As for “GTTCGAGCATGGACCGGTTTTCCCGGTAATCCGTATTTGCA (site GTTAGAGCTTG)”, the “recombinant UMI read abundance (log10)” value amounted to 0.651. As for “GTTCGAGCATGGACCGGTTTTCCCGGTAATCCGTATTTGCA (site GTTCAAGCTTG)”, the “recombinant UMI read abundance (log10)” value is 1.8. Take “GTTCGAGCATGGACCGGTTTTCCCGGTAATCCGTATTTGCA (site GTTCCAGCTTG)”: the “recombinant UMI read abundance (log10)” value was 0.541. As for “GTTCGAGCATGGACCGGTTTTCCCGGTAATCCGTATTTGCA (site GTTCGAACTTG)”, the figure is 0.806. Turning to “GTTCGAGCATGGACCGGTTTTCCCGGTAATCCGTATTTGCA (site GTTCGACCTTG)”, the “recombinant UMI read abundance (log10)” value amounted to 0.0101.

For the sequence “GTTCGAGCATGGACCGGTTTTCCCGGTAATCCGTATTTGCA (site GTTCGAGCTAG)”, the “recombinant UMI read abundance (log10)” value worked out at 0.

As to “GTTCGAGCATGGACCGGTTTTCCCGGTAATCCGTATTTGCA (site GTTCGAGCTCG)”, the “recombinant UMI read abundance (log10)” value is 0.461. As for “GTTCGAGCATGGACCGGTTTTCCCGGTAATCCGTATTTGCA (site GTTCGAGCTGG)”, the “recombinant UMI read abundance (log10)” value worked out at 0.789. “GTTCGAGCATGGACCGGTTTTCCCGGTAATCCGTATTTGCA (site GTTCGAGCTTA)”: the “recombinant UMI read abundance (log10)” value is 1.19.

In the case of “GTTCGAGCATGGACCGGTTTTCCCGGTAATCCGTATTTGCA (site GTTCGAGCTTC)”, the “recombinant UMI read abundance (log10)” value turned out to be 0.0558. As for “GTTCGAGCATGGACCGGTTTTCCCGGTAATCCGTATTTGCA (site GTTCGAGCTTG)”, the “recombinant UMI read abundance (log10)” value is 2.44.

For “GTTCGAGCATGGACCGGTTTTCCCGGTAATCCGTATTTGCA (site GTTCGAGCTTT)”, the “recombinant UMI read abundance (log10)” value came to 0.391.

Regarding “GTTCGAGCATGGACCGGTTTTCCCGGTAATCCGTATTTGCA (site GTTCGATCTTG)”, the “recombinant UMI read abundance (log10)” value amounted to 1.09. With “GTTCGAGCATGGACCGGTTTTCCCGGTAATCCGTATTTGCA (site GTTCGCGCTTG)”, the “recombinant UMI read abundance (log10)” value stood at 0.00631. For “GTTCGAGCATGGACCGGTTTTCCCGGTAATCCGTATTTGCA (site GTTCGGGCTTG)”, the “recombinant UMI read abundance (log10)” value came out at 1. Take “GTTCGAGCATGGACCGGTTTTCCCGGTAATCCGTATTTGCA (site GTTCGTGCTTG)”: the “recombinant UMI read abundance (log10)” value amounted to 0.477. In the case of “GTTCGAGCATGGACCGGTTTTCCCGGTAATCCGTATTTGCA (site GTTCTAGCTTG)”, the “recombinant UMI read abundance (log10)” value is 0.494. As to “GTTCGAGCATGGACCGGTTTTCCCGGTAATCCGTATTTGCA (site GTTGGAGCTTG)”, the “recombinant UMI read abundance (log10)” value was found to be 0.345.

Take “GTTCGAGCATGGACCGGTTTTCCCGGTAATCCGTATTTGCA (site GTTTGAGCTTG)”: the “recombinant UMI read abundance (log10)” value was 0.607. With “GTTCGAGCATGGACCGGTTTTCCCGGTAATCCGTATTTGCA (site TTTCGAGCTTG)”, the “recombinant UMI read abundance (log10)” value was found to be 0.829.

In the case of “GTTCGAGCATGGACCGGTTTTCCCGGTAATCCGTATTTGCC (site GTTCGAGCTAG)”, the “recombinant UMI read abundance (log10)” value was determined as 0.379.

For the sequence “GTTCGAGCATGGACCGGTTTTCCCGGTAATCCGTATTTGCC (site GTTCGAGCTCG)”, the “recombinant UMI read abundance (log10)” value amounted to 0.00775. “GTTCGAGCATGGACCGGTTTTCCCGGTAATCCGTATTTGCC (site GTTCGAGCTGG)”: the “recombinant UMI read abundance (log10)” value was determined as 1.42. Turning to “GTTCGAGCATGGACCGGTTTTCCCGGTAATCCGTATTTGCC (site GTTCGAGCTTG)”, the “recombinant UMI read abundance (log10)” value stood at 0.317. In the case of “GTTCGAGCATGGACCGGTTTTCCCGGTAATCCGTATTTGGG (site GTTCGAGCTCC)”, the “recombinant UMI read abundance (log10)” value was 0.00765. Regarding “GTTCGGCCATGGACCGGTTTTCCCGGTAATCCGTATTTGGT (site GTTCGGCCTAC)”, the “recombinant UMI read abundance (log10)” value came out at 0.00718. Turning to “GTTCTATCATGGACCGGTTTTCCCGGTAATCCGTATTTGTG (site GTTCTATCTCA)”, the “recombinant UMI read abundance (log10)” value turned out to be 1.02. For the sequence “GTTCTCACATGGACCGGTTTTCCCGGTAATCCGTATTTGGT (site GTTCTCACTAC)”, the “recombinant UMI read abundance (log10)” value turned out to be 0.234. Turning to “GTTGCGGCATGGACCGGTTTTCCCGGTAATCCGTATTTGCT (site ATTGCGGCTAG)”, the “recombinant UMI read abundance (log10)” value turned out to be 1.03. As for “GTTGCGGCATGGACCGGTTTTCCCGGTAATCCGTATTTGCT (site CTTGCGGCTAG)”, the figure is 0.745; as for “GTTGCGGCATGGACCGGTTTTCCCGGTAATCCGTATTTGCT (site GTTGCGGCTAG)”, 1.49. As for “GTTGCGGCATGGACCGGTTTTCCCGGTAATCCGTATTTGCT (site TTTGCGGCTAG)”, the figure is 0.731; as for “GTTGGAACATGGACCGGTTTTCCCGGTAATCCGTATTTGCC (site GTTGGAACTGG)”, 2.34; as for “GTTGGAACATGGACCGGTTTTCCCGGTAATCCGTATTTGTT (site GTTGGAACTAA)”, 2. Turning to “GTTGGTACATGGACCGGTTTTCCCGGTAATCCGTATTTGAC (site GTAGGTACTGT)”, the “recombinant UMI read abundance (log10)” value worked out at 1.9. For the sequence “GTTGGTACATGGACCGGTTTTCCCGGTAATCCGTATTTGAC (site GTCGGTACTGT)”, the “recombinant UMI read abundance (log10)” value amounted to 2.31.

Turning to “GTTGGTACATGGACCGGTTTTCCCGGTAATCCGTATTTGAC (site GTGGGTACTGT)”, the “recombinant UMI read abundance (log10)” value is 0. As to “GTTGGTACATGGACCGGTTTTCCCGGTAATCCGTATTTGAC (site GTTGGTACTGT)”, the “recombinant UMI read abundance (log10)” value stood at 2.36. On to “GTTGTTACATGGACCGGTTTTCCCGGTAATCCGTATTTGCA (site GTTGTTACTTG)”, for which the “recombinant UMI read abundance (log10)” value stood at 2.25. For “GTTGTTGCATGGACCGGTTTTCCCGGTAATCCGTATTTGGT (site GTTGTTACTAC)”, the “recombinant UMI read abundance (log10)” value turned out to be 0.375. On to “GTTGTTGCATGGACCGGTTTTCCCGGTAATCCGTATTTGGT (site GTTGTTCCTAC)”, for which the “recombinant UMI read abundance (log10)” value came to 0.00209.
